Experiments:
Format in all cases: functional
Pseudomonas aeruginosa [1] = assay: Potentiation of ceftazidime-induced antibacterial activity against carbapenem-resistant Pseudomonas aeruginosa 88949 clinical isolate assessed as fold reduction in ceftazidime MIC at 8 uM in presence of beta-lactamase inhibitor, avi-bactam
Pseudomonas aeruginosa [2] = assay: Potentiation of ceftazidime-induced antibacterial activity against carbapenem-resistant Pseudomonas aeruginosa 259-96918 clinical isolate expressing metallo-beta-lactamase assessed as ceftazidime MIC at 8 uM by checkerboard assay (reference value: 512 ug/ml)
Pseudomonas aeruginosa [3] = assay: Potentiation of ceftazidime-induced antibacterial activity against carbapenem-resistant Pseudomonas aeruginosa 109084 clinical isolate assessed as fold reduction in ceftazidime MIC at 8 uM in presence of beta-lactamase inhibitor, avi-bactam
Pseudomonas aeruginosa [4] = assay: Potentiation of imipenem-induced antibacterial activity against carbapenem and colistin-resistant Pseudomonas aeruginosa 101243 clinical isolate assessed as imipenem MIC at 8 uM by checkerboard assay (reference value: 8 ug/ml)
Pseudomonas aeruginosa [5] = assay: Potentiation of aztreonam-induced antibacterial activity against wild type Pseudomonas aeruginosa PAO1 assessed as aztreonam MIC at 8 uM by checkerboard assay (reference value: 4 ug/ml)
Pseudomonas aeruginosa [6] = assay: Potentiation of imipenem-induced antibacterial activity against carbapenem-resistant Pseudomonas aeruginosa 86052 clinical isolate assessed as imipenem MIC at 8 uM by checkerboard assay (reference value: 32 ug/ml)
Pseudomonas aeruginosa [7] = assay: Potentiation of ceftazidime-induced antibacterial activity against wild type Pseudomonas aeruginosa PAO1 assessed as ceftazidime MIC at 8 uM by checkerboard assay (reference value: 2 ug/ml)
Pseudomonas aeruginosa [8] = assay: Potentiation of ceftazidime-induced antibacterial activity against carbapenem-resistant Pseudomonas aeruginosa 100036 clinical isolate assessed as ceftazidime MIC at 8 uM by checkerboard assay (reference value: 8 ug/ml)
Pseudomonas aeruginosa [9] = assay: Potentiation of ceftazidime-induced antibacterial activity against carbapenem-resistant Pseudomonas aeruginosa 86052 clinical isolate assessed as ceftazidime MIC at 8 uM by checkerboard assay (reference value: 64 ug/ml)
Pseudomonas aeruginosa [10] = assay: Potentiation of aztreonam-induced antibacterial activity against carbapenem and colistin-resistant Pseudomonas aeruginosa 101243 clinical isolate assessed as aztreonam MIC at 8 uM by checkerboard assay (reference value: 32 ug/ml)
Pseudomonas aeruginosa [11] = assay: Potentiation of aztreonam-induced antibacterial activity against carbapenem-resistant Pseudomonas aeruginosa 260-97103 clinical isolate assessed as aztreonam MIC at 8 uM by checkerboard assay (reference value: 64 ug/ml)
Pseudomonas aeruginosa [12] = assay: Potentiation of aztreonam-induced antibacterial activity against wild type Pseudomonas aeruginosa PAO1 assessed as fold reduction in aztreonam MIC at 8 uM
Pseudomonas aeruginosa [13] = assay: Potentiation of imipenem-induced antibacterial activity against carbapenem-resistant Pseudomonas aeruginosa 109084 clinical isolate assessed as fold reduction in imipenem MIC at 8 uM in presence of beta-lactamase inhibitor, rele-bactam
Pseudomonas aeruginosa [14] = assay: Potentiation of ceftazidime-induced antibacterial activity against carbapenem-resistant Pseudomonas aeruginosa 107092 clinical isolate assessed as ceftazidime MIC at 8 uM by checkerboard assay (reference value: 128 ug/ml)
Pseudomonas aeruginosa [15] = assay: Potentiation of ceftazidime-induced antibacterial activity against carbapenem-resistant Pseudomonas aeruginosa 108590 clinical isolate assessed as ceftazidime MIC at 8 uM by checkerboard assay (reference value: 32 ug/ml)
Pseudomonas aeruginosa [16] = assay: Potentiation of aztreonam-induced antibacterial activity against carbapenem-resistant Pseudomonas aeruginosa 86052 clinical isolate assessed as fold reduction in aztreonam MIC at 8 uM in presence of beta-lactamase inhibitor, avi-bactam
Pseudomonas aeruginosa [17] = assay: Potentiation of ceftazidime-induced antibacterial activity against wild type Pseudomonas aeruginosa PAO1 assessed as fold reduction in ceftazidime MIC at 8 uM
Pseudomonas aeruginosa [18] = assay: Potentiation of aztreonam-induced antibacterial activity against carbapenem and colistin-resistant Pseudomonas aeruginosa 91433 clinical isolate assessed as aztreonam MIC at 8 uM by checkerboard assay (reference value: 16 ug/ml)
Pseudomonas aeruginosa [19] = assay: Potentiation of ceftazidime-induced antibacterial activity against carbapenem-resistant Pseudomonas aeruginosa 260-97103 clinical isolate assessed as ceftazidime MIC at 8 uM by checkerboard assay (reference value: 32 ug/ml)
Pseudomonas aeruginosa [20] = assay: Potentiation of aztreonam-induced antibacterial activity against carbapenem-resistant Pseudomonas aeruginosa 262-101856 clinical isolate assessed as aztreonam MIC at 8 uM by checkerboard assay (reference value: 32 ug/ml)
Pseudomonas aeruginosa [21] = assay: Potentiation of aztreonam-induced antibacterial activity against carbapenem-resistant Pseudomonas aeruginosa 107092 clinical isolate assessed as aztreonam MIC at 8 uM by checkerboard assay (reference value: 64 ug/ml)
Pseudomonas aeruginosa [22] = assay: Potentiation of ceftazidime-induced antibacterial activity against carbapenem-resistant Pseudomonas aeruginosa 101885 clinical isolate assessed as ceftazidime MIC at 8 uM by checkerboard assay (reference value: 8 ug/ml)
Pseudomonas aeruginosa [23] = assay: Potentiation of imipenem-induced antibacterial activity against carbapenem-resistant Pseudomonas aeruginosa 101885 clinical isolate assessed as imipenem MIC at 8 uM by checkerboard assay (reference value: 4 ug/ml)
Pseudomonas aeruginosa [24] = assay: Potentiation of aztreonam-induced antibacterial activity against carbapenem-resistant Pseudomonas aeruginosa 88949 clinical isolate assessed as aztreonam MIC at 8 uM by checkerboard assay (reference value: 32 ug/ml)
Pseudomonas aeruginosa [25] = assay: Potentiation of ceftazidime-induced antibacterial activity against carbapenem-resistant Pseudomonas aeruginosa PAO200 harboring mexAB-oprM efflux deficient mutant assessed as ceftazidime MIC at 8 uM by checkerboard assay (reference value: 1 ug/ml)
Pseudomonas aeruginosa [26] = assay: Potentiation of imipenem-induced antibacterial activity against carbapenem-resistant Pseudomonas aeruginosa 107092 clinical isolate assessed as fold reduction in imipenem MIC at 8 uM in presence of beta-lactamase inhibitor, rele-bactam
Pseudomonas aeruginosa [27] = assay: Potentiation of imipenem-induced antibacterial activity against carbapenem-resistant Pseudomonas aeruginosa 259-96918 clinical isolate expressing MBL assessed as imipenem MIC at 8 uM by checkerboard assay (reference value: 64 ug/ml)
Pseudomonas aeruginosa [28] = assay: Potentiation of aztreonam-induced antibacterial activity against carbapenem-resistant Pseudomonas aeruginosa 100036 clinical isolate assessed as aztreonam MIC at 8 uM by checkerboard assay (reference value: 16 ug/ml)
Pseudomonas aeruginosa [29] = assay: Potentiation of ceftazidime-induced antibacterial activity against carbapenem-resistant Pseudomonas aeruginosa PAO750 harboring and mexAB-oprM/mexCD-oprJ/mexEF-oprN/mexJK/mexXY/opmH efflux deficient mutant assessed as ceftazidime MIC at 8 uM by checkerboard assay (reference value: 0.5 ug/ml)
Pseudomonas aeruginosa [30] = assay: Potentiation of imipenem-induced antibacterial activity against carbapenem-resistant Pseudomonas aeruginosa PAO200 harboring mexAB-oprM efflux deficient mutant assessed as imipenem MIC at 8 uM by checkerboard assay (reference value: 4 ug/ml)
Pseudomonas aeruginosa [31] = assay: Potentiation of ceftazidime-induced antibacterial activity against carbapenem-resistant Pseudomonas aeruginosa 88949 clinical isolate assessed as ceftazidime MIC at 8 uM by checkerboard assay (reference value: 64 ug/ml)
Pseudomonas aeruginosa [32] = assay: Potentiation of ceftazidime-induced antibacterial activity against carbapenem-resistant Pseudomonas aeruginosa 86052 clinical isolate assessed as fold reduction in ceftazidime MIC at 8 uM in presence of beta-lactamase inhibitor, avi-bactam

Row | SMILES | fold change (FC) (Pseudomonas aeruginosa [1]) | MIC (Pseudomonas aeruginosa [2]) [µg/mL] | fold change (FC) (Pseudomonas aeruginosa [3]) | MIC (Pseudomonas aeruginosa [4]) [µg/mL] | MIC (Pseudomonas aeruginosa [5]) [µg/mL] | MIC (Pseudomonas aeruginosa [6]) [µg/mL] | MIC (Pseudomonas aeruginosa [7]) [µg/mL] | MIC (Pseudomonas aeruginosa [8]) [µg/mL] | MIC (Pseudomonas aeruginosa [9]) [µg/mL] | MIC (Pseudomonas aeruginosa [10]) [µg/mL] | MIC (Pseudomonas aeruginosa [11]) [µg/mL] | fold change (FC) (Pseudomonas aeruginosa [12]) | fold change (FC) (Pseudomonas aeruginosa [13]) | fold change (FC) (Pseudomonas aeruginosa [16]) | fold change (FC) (Pseudomonas aeruginosa [17]) | MIC (Pseudomonas aeruginosa [23]) [µg/mL] | fold change (FC) (Pseudomonas aeruginosa [26]) | MIC (Pseudomonas aeruginosa [27]) [µg/mL] | MIC (Pseudomonas aeruginosa [30]) [µg/mL] | fold change (FC) (Pseudomonas aeruginosa [32]) | further results
1 | NC[C@H]1O[C@H](O[C@H]2[C@H](OCCCCc3cn(CCCCO[C@@H]4[C@@H](O[C@H]5O[C@H](CO)[C@@H](O)[C@H](N)[C@H]5O)[C@H](N)C[C@H](N)[C@H]4O[C@H]4O[C@H](CN)[C@@H](O)C[C@H]4N)nn3)[C@@H](O[C@H]3O[C@H](CO)[C@@H](O)[C@H](N)[C@H]3O)[C@H](N)C[C@@H]2N)[C@H](N)C[C@@H]1O.O=C(O)C(F)(F)F.O=C(O)C(F)(F)F.O=C(O)C(F)(F)F.O=C(O)C(F)(F)F.O=C(O)C(F)(F)F.O=C(O)C(F)(F)F.O=C(O)C(F)(F)F.O=C(O)C(F)(F)F.O=C(O)C(F)(F)F.O=C(O)C(F)(F)F | 16 | 128 | 16 | 8 | 0.25 | 16 | 0.25 | 2 | 64 | 16 | 16 | 2 | 16 | 16 | 2 | 4 | 16 | 32 | 1 | 16 | MIC (Pseudomonas aeruginosa [14]): 32 µg/mL; MIC (Pseudomonas aeruginosa [15]): 8 µg/mL; MIC (Pseudomonas aeruginosa [18]): 4 µg/mL; MIC (Pseudomonas aeruginosa [19]): 8 µg/mL; MIC (Pseudomonas aeruginosa [20]): 8 µg/mL; MIC (Pseudomonas aeruginosa [21]): 16 µg/mL; MIC (Pseudomonas aeruginosa [22]): 2 µg/mL; MIC (Pseudomonas aeruginosa [24]): 32 µg/mL; MIC (Pseudomonas aeruginosa [25]): 0.13 µg/mL; MIC (Pseudomonas aeruginosa [28]): 2 µg/mL; MIC (Pseudomonas aeruginosa [29]): 0.06 µg/mL; MIC (Pseudomonas aeruginosa [31]): 16 µg/mL
2 | Cl.Cl.Cl.Cl.Cl.NC[C@H]1O[C@H](O[C@H]2[C@H](OCCCCCCCCCCCCN3CCN(c4cc5c(cc4F)c(=O)c(C(=O)O)cn5C4CC4)CC3)[C@@H](O)[C@H](N)C[C@@H]2N)[C@H](N)C[C@@H]1O | 16 | 128 | 16 | 4 | 0.5 | 4 | 0.25 | 4 | 4 | 0.25 | 0.25 | 2 | 16 | 16 | 2 | 2 | 16 | 16 | 1 | 16 | MIC (Pseudomonas aeruginosa [14]): 64 µg/mL; MIC (Pseudomonas aeruginosa [15]): 1 µg/mL; MIC (Pseudomonas aeruginosa [18]): 8 µg/mL; MIC (Pseudomonas aeruginosa [19]): 0.25 µg/mL; MIC (Pseudomonas aeruginosa [20]): 16 µg/mL; MIC (Pseudomonas aeruginosa [21]): 32 µg/mL; MIC (Pseudomonas aeruginosa [22]): 4 µg/mL; MIC (Pseudomonas aeruginosa [24]): 8 µg/mL; MIC (Pseudomonas aeruginosa [25]): 0.13 µg/mL; MIC (Pseudomonas aeruginosa [28]): 8 µg/mL; MIC (Pseudomonas aeruginosa [29]): 0.01 µg/mL; MIC (Pseudomonas aeruginosa [31]): 32 µg/mL
3 | Cl.Cl.Cl.Cl.Cl.Cl.NC[C@H]1O[C@H](O[C@H]2[C@H](OCCCCCCCCCCCCN3CCN(c4cc5c(cc4F)c(=O)c(C(=O)O)cn5C4CC4)CC3)[C@@H](O[C@H]3O[C@H](CO)[C@@H](O)[C@H](N)[C@H]3O)[C@H](N)C[C@@H]2N)[C@H](N)C[C@@H]1O | 16 | 64 | 16 | 2 | 0.25 | 8 | 0.25 | 2 | 32 | 4 | 4 | 2 | 16 | 16 | 2 | 2 | 16 | 16 | 1 | 16 | MIC (Pseudomonas aeruginosa [14]): 16 µg/mL; MIC (Pseudomonas aeruginosa [15]): 0.5 µg/mL; MIC (Pseudomonas aeruginosa [18]): 4 µg/mL; MIC (Pseudomonas aeruginosa [19]): 4 µg/mL; MIC (Pseudomonas aeruginosa [20]): 4 µg/mL; MIC (Pseudomonas aeruginosa [21]): 8 µg/mL; MIC (Pseudomonas aeruginosa [22]): 1 µg/mL; MIC (Pseudomonas aeruginosa [24]): 8 µg/mL; MIC (Pseudomonas aeruginosa [25]): 0.06 µg/mL; MIC (Pseudomonas aeruginosa [28]): 4 µg/mL; MIC (Pseudomonas aeruginosa [29]): 0.03 µg/mL; MIC (Pseudomonas aeruginosa [31]): 32 µg/mL
4 | NC[C@H]1O[C@H](O[C@H]2[C@H](OCCCCCCCCN3CCCNCCNCCCNCC3)[C@@H](O[C@H]3O[C@H](CO)[C@@H](O)[C@H](N)[C@H]3O)[C@H](N)C[C@@H]2N)[C@H](N)C[C@@H]1O.O=C(O)C(F)(F)F.O=C(O)C(F)(F)F.O=C(O)C(F)(F)F.O=C(O)C(F)(F)F.O=C(O)C(F)(F)F.O=C(O)C(F)(F)F.O=C(O)C(F)(F)F.O=C(O)C(F)(F)F.O=C(O)C(F)(F)F | 16 |  | 16 | 8 |  | 16 |  |  |  |  |  | 2 | 16 | 16 | 2 | 2 | 16 | 64 | 2 | 16 | 
5 | NC[C@H]1O[C@H](O[C@H]2[C@H](OCCCCCCCCN3CCCNCCNCCCNCC3)[C@@H](O)[C@H](N)C[C@@H]2N)[C@H](N)C[C@@H]1O.O=C(O)C(F)(F)F.O=C(O)C(F)(F)F.O=C(O)C(F)(F)F.O=C(O)C(F)(F)F.O=C(O)C(F)(F)F.O=C(O)C(F)(F)F.O=C(O)C(F)(F)F.O=C(O)C(F)(F)F | 16 | 128 | 16 | 8 | 0.5 | 16 | 0.5 | 4 | 64 | 2 | 8 | 2 | 16 | 16 | 2 | 2 | 16 | 32 | 2 | 16 | MIC (Pseudomonas aeruginosa [14]): 32 µg/mL; MIC (Pseudomonas aeruginosa [15]): 16 µg/mL; MIC (Pseudomonas aeruginosa [18]): 8 µg/mL; MIC (Pseudomonas aeruginosa [19]): 16 µg/mL; MIC (Pseudomonas aeruginosa [20]): 8 µg/mL; MIC (Pseudomonas aeruginosa [21]): 32 µg/mL; MIC (Pseudomonas aeruginosa [22]): 2 µg/mL; MIC (Pseudomonas aeruginosa [24]): 32 µg/mL; MIC (Pseudomonas aeruginosa [25]): 0.13 µg/mL; MIC (Pseudomonas aeruginosa [28]): 8 µg/mL; MIC (Pseudomonas aeruginosa [29]): 0.13 µg/mL; MIC (Pseudomonas aeruginosa [31]): 64 µg/mL

Reference: ChEMBL document CHEMBL4665836, “Overcoming β-Lactam resistance in Pseudomonas aeruginosa using non-canonical tobramycin-based antibiotic adjuvants” (2020)
